From publication PMC3603284 (Therapeutic drug monitoring, 2013)

Assay: Week 2 plasma trough protease inhibitor concentration
Parameters: species or system human
Conditions: in vivo

SMILES | association of SLCO1B1 521T→C with week 2 trough concentration | decrease in the mean trough concentration per C allele (human, 2 weeks) | week 2 trough measures below the assay limit of quantification (200 ng/ml) (human, 2 weeks)
CC(C)(C)NC(=O)[C@@H]1C[C@@H]2CCCC[C@@H]2CN1C[C@@H](O)[C@H](Cc1ccccc1)NC(=O)[C@H](CC(N)=O)NC(=O)c1ccc2ccccc2n1 [saquinavir] | no significant association | – | –
CC(C)CN(C[C@@H](O)[C@H](Cc1ccccc1)NC(=O)O[C@H]1CCOC1)S(=O)(=O)c1ccc(N)cc1 [amprenavir] | – | 35% | –
CC(C)c1nc(CN(C)C(=O)N[C@H](C(=O)N[C@@H](Cc2ccccc2)C[C@H](O)[C@H](Cc2ccccc2)NC(=O)OCc2cncs2)C(C)C)cs1 [ritonavir] | no significant association | – | 86%
